Reference: ChEMBL document CHEMBL1641502, “The identification of substituted benzothiophene derivatives as PGE(2) subtype 4 receptor antagonists: From acid to non-acid” (Bioorg Med Chem Lett, 2011)

Tests used:
[1] = molecular target: T1, Prostaglandin E2 receptor EP4 subtype (Homo sapiens, UniProt P35408); assay: Binding affinity to EP4 receptor in presence of 10% HSA
[2] = molecular target: T1, Prostaglandin E2 receptor EP4 subtype; assay: Binding affinity to EP4 receptor
[3] = molecular target: T2, Prostaglandin D2 receptor 2 (Homo sapiens, UniProt Q9Y5Y4); assay: Binding affinity to CRTH2 receptor
T2 sequence (Q9Y5Y4 whole entry): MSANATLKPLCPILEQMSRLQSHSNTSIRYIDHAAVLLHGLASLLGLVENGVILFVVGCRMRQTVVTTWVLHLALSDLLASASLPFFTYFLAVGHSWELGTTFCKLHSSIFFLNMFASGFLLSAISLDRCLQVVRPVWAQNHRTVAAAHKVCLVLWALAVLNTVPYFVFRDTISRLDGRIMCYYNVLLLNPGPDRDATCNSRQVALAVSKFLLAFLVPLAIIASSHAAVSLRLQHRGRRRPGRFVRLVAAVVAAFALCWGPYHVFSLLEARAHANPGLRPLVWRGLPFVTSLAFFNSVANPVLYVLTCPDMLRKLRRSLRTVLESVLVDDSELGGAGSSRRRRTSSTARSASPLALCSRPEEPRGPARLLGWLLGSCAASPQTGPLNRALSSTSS

[4] = molecular target: T1, Prostaglandin E2 receptor EP4 subtype; assay: Antagonist activity at human EP4 receptor in HEK293 cells by cell-based functional assay
[5] = molecular target: Prostaglandin F2-alpha receptor (Homo sapiens, UniProt P43088); assay: Binding affinity to FP receptor
[6] = molecular target: Prostaglandin E2 receptor EP2 subtype (Homo sapiens, UniProt P43116); assay: Binding affinity to EP2 receptor
[7] = Binding affinity to DP receptor
Thromboxane A2 receptor = molecular target: T3, Thromboxane A2 receptor (Homo sapiens, UniProt P21731); assay: Binding affinity to TP receptor
T3 sequence (P21731 whole entry): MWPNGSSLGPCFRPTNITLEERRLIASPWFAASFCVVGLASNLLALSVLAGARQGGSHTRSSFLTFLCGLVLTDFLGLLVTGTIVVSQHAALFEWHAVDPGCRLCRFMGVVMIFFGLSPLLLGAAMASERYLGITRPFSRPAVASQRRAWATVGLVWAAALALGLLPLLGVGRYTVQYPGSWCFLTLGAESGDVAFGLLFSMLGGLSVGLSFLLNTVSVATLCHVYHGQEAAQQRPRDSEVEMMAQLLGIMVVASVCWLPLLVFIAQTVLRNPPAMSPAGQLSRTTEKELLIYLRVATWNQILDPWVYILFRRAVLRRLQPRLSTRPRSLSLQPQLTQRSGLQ

[8] = molecular target: T4, Prostaglandin E2 receptor EP3 subtype (Homo sapiens, UniProt P43115); assay: Binding affinity to EP3 receptor
T4 sequence (P43115 whole entry): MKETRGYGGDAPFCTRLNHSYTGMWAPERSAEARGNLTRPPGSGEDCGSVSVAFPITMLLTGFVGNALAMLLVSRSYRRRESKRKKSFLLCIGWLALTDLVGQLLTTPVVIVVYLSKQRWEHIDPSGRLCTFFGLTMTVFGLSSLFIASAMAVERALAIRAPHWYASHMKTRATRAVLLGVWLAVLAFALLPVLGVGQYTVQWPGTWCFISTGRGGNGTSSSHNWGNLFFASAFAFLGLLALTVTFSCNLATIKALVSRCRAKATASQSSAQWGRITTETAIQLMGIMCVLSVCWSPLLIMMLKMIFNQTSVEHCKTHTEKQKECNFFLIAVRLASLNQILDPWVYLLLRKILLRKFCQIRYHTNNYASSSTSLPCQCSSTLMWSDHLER

[9] = molecular target: T5, Prostaglandin E2 receptor EP1 subtype (Homo sapiens, UniProt P34995); assay: Binding affinity to EP1 receptor
T5 sequence (P34995 whole entry): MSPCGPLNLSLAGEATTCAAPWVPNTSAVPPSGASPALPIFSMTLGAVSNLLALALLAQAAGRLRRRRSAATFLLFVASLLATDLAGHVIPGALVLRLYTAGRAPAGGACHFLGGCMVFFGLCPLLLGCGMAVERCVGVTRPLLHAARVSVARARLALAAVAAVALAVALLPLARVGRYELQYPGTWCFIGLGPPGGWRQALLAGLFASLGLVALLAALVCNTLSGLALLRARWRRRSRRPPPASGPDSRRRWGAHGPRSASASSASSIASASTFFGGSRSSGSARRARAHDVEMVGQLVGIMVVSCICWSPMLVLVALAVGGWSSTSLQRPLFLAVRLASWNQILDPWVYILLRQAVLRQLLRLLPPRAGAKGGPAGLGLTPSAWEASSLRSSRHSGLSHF

Prostacyclin receptor = Prostacyclin receptor (Homo sapiens, UniProt P43119); assay: Binding affinity to IP receptor
Chain of Prostacyclin receptor (P43119 whole entry): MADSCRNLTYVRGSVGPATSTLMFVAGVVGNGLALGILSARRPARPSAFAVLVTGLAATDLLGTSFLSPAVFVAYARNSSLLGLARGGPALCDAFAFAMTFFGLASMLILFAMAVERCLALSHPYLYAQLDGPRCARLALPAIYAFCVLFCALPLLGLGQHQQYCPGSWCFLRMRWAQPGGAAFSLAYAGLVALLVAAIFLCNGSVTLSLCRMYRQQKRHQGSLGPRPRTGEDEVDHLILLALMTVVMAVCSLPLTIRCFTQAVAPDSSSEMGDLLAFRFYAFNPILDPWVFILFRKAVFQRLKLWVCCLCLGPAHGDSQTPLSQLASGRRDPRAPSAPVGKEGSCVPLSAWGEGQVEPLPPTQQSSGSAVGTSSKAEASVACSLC

T1 sequence (P35408 whole entry): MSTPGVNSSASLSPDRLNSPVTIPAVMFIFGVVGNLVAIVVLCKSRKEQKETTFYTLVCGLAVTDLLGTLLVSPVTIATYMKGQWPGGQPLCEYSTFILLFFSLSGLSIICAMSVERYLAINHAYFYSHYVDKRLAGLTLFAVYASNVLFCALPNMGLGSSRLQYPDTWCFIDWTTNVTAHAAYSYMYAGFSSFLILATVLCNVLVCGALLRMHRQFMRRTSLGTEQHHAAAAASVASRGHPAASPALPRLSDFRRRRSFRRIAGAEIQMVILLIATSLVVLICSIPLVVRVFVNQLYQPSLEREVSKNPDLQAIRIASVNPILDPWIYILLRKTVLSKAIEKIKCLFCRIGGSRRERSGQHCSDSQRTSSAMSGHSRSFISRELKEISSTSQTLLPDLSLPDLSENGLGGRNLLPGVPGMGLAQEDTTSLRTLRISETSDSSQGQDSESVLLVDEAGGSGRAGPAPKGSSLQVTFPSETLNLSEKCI
Chain of Prostaglandin E2 receptor EP2 subtype (P43116 whole entry): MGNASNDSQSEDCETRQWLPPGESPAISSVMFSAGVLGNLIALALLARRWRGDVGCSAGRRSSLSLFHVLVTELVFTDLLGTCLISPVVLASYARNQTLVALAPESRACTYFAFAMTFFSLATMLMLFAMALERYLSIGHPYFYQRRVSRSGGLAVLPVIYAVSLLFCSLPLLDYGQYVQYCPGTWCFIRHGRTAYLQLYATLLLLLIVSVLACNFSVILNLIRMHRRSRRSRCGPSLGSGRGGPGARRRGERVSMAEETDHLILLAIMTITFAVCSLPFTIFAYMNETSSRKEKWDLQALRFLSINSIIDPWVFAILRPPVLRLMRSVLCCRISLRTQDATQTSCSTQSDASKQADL
Chain of Prostaglandin F2-alpha receptor (P43088 whole entry): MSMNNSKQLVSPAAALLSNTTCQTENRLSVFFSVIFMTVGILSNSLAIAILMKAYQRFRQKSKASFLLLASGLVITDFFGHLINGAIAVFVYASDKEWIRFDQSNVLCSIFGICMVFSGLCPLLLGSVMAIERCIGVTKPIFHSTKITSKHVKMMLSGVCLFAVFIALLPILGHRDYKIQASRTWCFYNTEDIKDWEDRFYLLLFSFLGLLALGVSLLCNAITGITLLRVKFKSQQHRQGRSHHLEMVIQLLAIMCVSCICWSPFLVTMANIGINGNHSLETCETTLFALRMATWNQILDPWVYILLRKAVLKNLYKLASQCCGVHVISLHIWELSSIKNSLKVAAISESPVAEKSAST

| Ki [1] | Ki [2] | SMILES | also measured |
| --- | --- | --- | --- |
| 2300 nM | 160 nM | Cc1cc(C)c2sc(C(=O)N(C)C)c(-c3ccc(-c4nn[nH]n4)cc3)c2c1 |  |
| 39 nM | 0.97 nM | COC(=O)c1sc2c(C)cc(C)cc2c1-c1ccc(CCNC(=O)NS(=O)(=O)c2ccc(C)cc2)cc1 |  |
| 1.4 nM | 0.54 nM | Cc1ccc(S(=O)(=O)NC(=O)NCCc2ccc(-c3c(C(=O)N(C)C)sc4c(C)cc(C)cc34)cc2)cc1 | Ki [3]: > 7230 nM; IC50 [4]: 1.2 nM; Ki [5]: > 8700 nM; Ki [6]: 3330 nM; Ki [7]: 73 nM; Ki (Thromboxane A2 receptor): 61 nM; Ki [8]: 530 nM; Ki [9]: > 9500 nM; Ki (Prostacyclin receptor): > 7700 nM |
| 2.2 nM | 0.4 nM | Cc1cc(C)c2sc(C(=O)N(C)C)c(-c3ccc(CCNC(=O)NS(=O)(=O)c4ccc(Cl)cc4)cc3)c2c1 |  |
| 2.7 nM | 0.42 nM | Cc1cc(C)c2sc(C(=O)N(C)C)c(-c3ccc(CCNC(=O)NS(=O)(=O)c4ccccc4Cl)cc3)c2c1 |  |
| 650 nM | 3.8 nM | Cc1ccc(S(=O)(=O)NC(=O)NCCc2ccc(-c3c(C(N)=O)sc4c(C)cc(C)cc34)cc2)cc1 |  |
| 134 nM | 0.5 nM | CNC(=O)c1sc2c(C)cc(C)cc2c1-c1ccc(CCNC(=O)NS(=O)(=O)c2ccc(C)cc2)cc1 |  |
| 11 nM | 0.41 nM | Cc1ccc(S(=O)(=O)NC(=O)NCCc2ccc(-c3c(C(=O)N4CCCC4)sc4c(C)cc(C)cc34)cc2)cc1 |  |
| 17 nM | 0.59 nM | Cc1ccc(S(=O)(=O)NC(=O)NCCc2ccc(-c3c(C(=O)N(C)C)sc4c(Cl)cc(Cl)cc34)cc2)cc1 |  |
| 40 nM | 0.53 nM | Cc1ccc(S(=O)(=O)NC(=O)NCCc2ccc(-c3c(C(=O)N(C)C)sc4c(F)cc(F)cc34)cc2)cc1 |  |
| 8.7 nM | 0.55 nM | Cc1ccc(S(=O)(=O)NC(=O)NCCc2ccc(-c3c(C(=O)N(C)C)sc4c(Cl)cc(C(F)(F)F)cc34)cc2)cc1 |  |
| 19 nM | 0.77 nM | Cc1ccc(S(=O)(=O)NC(=O)NCCc2ccc(-c3c(C(=O)N(C)C)sc4c(C)ccc(C)c34)cc2)cc1 |  |
| 1990 nM | 68 nM | Cc1cc(C)c2sc(C(=O)N(C)C)c(-c3ccc(CCNC(=O)OC(C)(C)C)cc3)c2c1 |  |
| 3.4 nM | 0.2 nM | COc1ccccc1CC(=O)NCCc1ccc(-c2c(C(=O)N(C)C)sc3c(C)cc(C)cc23)cc1 | IC50 [4]: 2.4 nM |
| 40 nM | 2.3 nM | Cc1cc(C)c2sc(C(=O)N(C)C)c(-c3ccc(CCNC(=O)Cc4ccccn4)cc3)c2c1 |  |
| 17 nM | 3 nM | COc1ccccc1C1(C(=O)NCCc2ccc(-c3c(C(=O)N(C)C)sc4c(C)cc(C)cc34)cc2)CC1 |  |
| 17 nM | 1.6 nM | Cc1cc(C)c2sc(C(=O)N(C)C)c(-c3ccc(CCNC(=O)Cc4c(Cl)cccc4Cl)cc3)c2c1 |  |
| 42 nM | 0.98 nM | Cc1cc(C)c2sc(C(=O)N(C)C)c(-c3ccc(CCNc4ncccn4)cc3)c2c1 |  |
